Test results as given in paper PMC10675597, “Design, Synthesis, and Antisickling Investigation of a Thiazolidine Prodrug of TD-7 That Prolongs the Duration of Action of Antisickling Aromatic Aldehyde” (Pharmaceutics, 2023).

Tests used:
[1] = In-vitro stability in different pH buffers (aldehyde peak absorbance at 349 nm); format: physicochemical; details: for Stability (absorbance of aldehyde peak at 349 nm): 1 mM, 37 °C
Method: The stability of Pro-7 and the control TD-7 in different pH buffers (PBS buffer at pH 7.4, KCl·HCl buffer at pH 2.0, and Tris buffer at pH 8.0) was evaluated over time as previously reported. The ionic strength of all buffers was kept constant at 150 mM. A 200 mM stock solution of each compound was prepared using anhydrous DMSO. 1 mM solutions of each of the test compounds TD-7 and Pro-7 were prepared in duplicate for each of the three different pH buffers. […]
An in-vitro time-dependent (1–96 h) stability study of Pro-7 was conducted to inform the formulation of the prodrug. The study was conducted at three different pHs: 2.0, 7.4 and 8.0, which mimic stomach, blood and intestinal pH conditions, respectively. The presence of TD-7 or the rate of appearance of TD-7 upon dissociation of Pro-7 was monitored at 349 nm spectrophotometrically.

[2] = target: T1, Hb in human normal whole blood (Homo sapiens, UniProt P69905); assay: In-vitro time-dependent Hb modification (Hb adduct formation), cation-exchange HPLC; format: cell-based; details: 2 mM, normal whole blood 30% hematocrit
T1 construct: normal whole blood (AA) was collected from adult donors; from tissue; host or cells: normal (AA) human whole blood from adult donors, 30% hematocrit
Method: Pro-7 and the control TD-7 were used to conduct time-dependent Hb modification (Hb adduct formation) studies using normal whole blood as previously reported. A 200 mM stock solution of each compound was made with DMSO. In a 96-well 1.2 mL polypropylene deep-well plate (Thermo Scientific, Hampshire, UK), 2.0 mM concentration of each compound was added to 600 μL of whole blood (30% hematocrit), which was then incubated at 37 °C for 24 h with shaking (at 140 rpm). A control sample was supplemented only with an equivalent volume of DMSO. At different time points (0–24 h), 50 μL aliquots of this mixture were withdrawn from each well using a multichannel pipette and added to respective tubes containing 50 μL of sodium cyanoborohydride (NaBH3CN) and sodium borohydride (NaBH4) mixture (1:1 v/v 50 mM stock) to terminate the Schiff-base reaction, fix the Schiff-base Hb adducts and reduce the free reactive aldehyde. After mixing, the tubes were stored immediately at −80 °C until ready for analysis using cation-exchange HPLC (Hitachi D-7000 Series, Hitachi Instruments, Inc. San Jose, CA, USA) for Hb-compound adduct formation. The observed Hb adducts in %Hb modification were plotted as a function of time (h).
(§1) Human normal whole blood was used to assess the degree of Hb modification and Hb oxygen affinity (P50 shift), while sickle blood was used to investigate RBC sickling inhibition. Pro-7 and the positive control TD-7 were incubated with normal whole blood suspensions. […] For the sickling inhibition study, Pro-7 and the positive control TD-7 were incubated with SS blood suspensions under hypoxic conditions (2.5% O2/97.5% N2), and aliquot blood samples were drawn at three time points (1, 3 and 6 h) and used for assessing RBC morphology. The results summarized in Table 1 and Figure 4A–C show time-dependent effects for all three pharmacodynamic activities. […] Even at the end of the 24-h experiment, Pro-7 activity was still increasing.

[3] = target: T1, Hb in human normal whole blood; assay: In-vitro time-dependent oxygen equilibrium study (P50 shift); format: cell-based; details: 2 mM, normal whole blood 30% hematocrit
Method: An oxygen equilibrium curve study was conducted in a time-dependent manner to determine the effect and duration of Pro-7 on Hb affinity for oxygen (P50 shift) following standard procedure. Pro-7, along with the controls TD-7 and DMSO were used for the studies with normal whole blood sample (30% hematocrit). Each compound was incubated with the blood at a final concentration of 2 mM, and aliquot samples were taken at 1, 3, 6, 12 and 24 h and further incubated in IL 237 tonometer (Instrumentation Laboratories, Inc., Lexington, MA, USA) for 10 min at 37 °C, and allowed to equilibrate at oxygen tensions 6, 20, and 40 mmHg. The samples were then aspirated into a Radiometer ABL 800 Automated Blood Gas Analyzer (Copenhagen, Denmark ) to determine the pH, partial pressure of CO2 (pCO2), partial pressure of oxygen (pO2), and Hb oxygen saturation values (SO2). The measured values of pO2 (mmHg) and SO2 at each pO2 value were then subjected to a non-linear regression analysis using the program Scientist (Micromath, Salt Lake City, UT, USA) to estimate P50 as a measure of Hb oxygen affinity as previously reported.
as §1

[4] = test system: SS cells (homozygous sickle cell blood); assay: In-vitro time-dependent RBC sickling inhibition under hypoxia; format: cell-based, human; details: 2 mM, SS cells 20% hematocrit, hypoxia (4% oxygen/96% nitrogen)
Method: Red blood cell sickling inhibition studies with Pro-7 and the control TD-7 was conducted using previously reported procedure. Blood suspensions from subjects with homozygous SCD (hematocrit 20%) were incubated under air in the absence or presence of test compounds at 37 °C for 1 h to ensure that binding has attained equilibrium. […] Aliquot samples were fixed with 2% glutaraldehyde solution without exposure to air, and then subjected to microscopic morphological analysis.
Human normal whole blood was used to assess the degree of Hb modification and Hb oxygen affinity (P50 shift), while sickle blood was used to investigate RBC sickling inhibition. […] The results summarized in Table 1 and Figure 4A–C show time-dependent effects for all three pharmacodynamic activities. […] Even at the end of the 24-h experiment, Pro-7 activity was still increasing.

T1 sequence (P69905 2-142 limits assumed): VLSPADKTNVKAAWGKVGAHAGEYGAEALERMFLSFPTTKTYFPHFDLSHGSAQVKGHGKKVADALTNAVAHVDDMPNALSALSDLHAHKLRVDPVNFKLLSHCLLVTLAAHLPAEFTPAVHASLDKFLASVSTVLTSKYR
T1 sequence (P68871 2-147 partner limits assumed): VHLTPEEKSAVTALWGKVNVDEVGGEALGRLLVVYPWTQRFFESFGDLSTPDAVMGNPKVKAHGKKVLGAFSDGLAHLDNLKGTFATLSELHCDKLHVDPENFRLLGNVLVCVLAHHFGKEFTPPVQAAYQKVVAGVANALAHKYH

1-(2-(3-((6-(hydroxymethyl)pyridin-2-yl)methoxy)-5 methoxyphenyl)thiazolidin-4-yl)propan-1-one [Pro-7]
degradation to release TD-7 (in words) ([1]; pH 2.0): very fast degradation
time for formation of TD-7 from Pro-7 to be almost completed ([1]; pH 2.0): ≤ 1 h
Stability (absorbance of aldehyde peak at 349 nm) ([1]; pH 2.0, 0 hr): 1.22 ± 0.4
Stability (absorbance of aldehyde peak at 349 nm) ([1]; pH 2.0, 1 hr): 3.16 ± 0.2
Stability (absorbance of aldehyde peak at 349 nm) ([1]; pH 2.0, 2 hr): 3.17 ± 0.09
Stability (absorbance of aldehyde peak at 349 nm) ([1]; pH 2.0, 3 hr): 3.36 ± 0.03
Stability (absorbance of aldehyde peak at 349 nm) ([1]; pH 2.0, 6 hr): 3.27 ± 0.02
Stability (absorbance of aldehyde peak at 349 nm) ([1]; pH 2.0, 24 hr): 3.05 ± 0.00
Stability (absorbance of aldehyde peak at 349 nm) ([1]; pH 7.4, 0 hr): 0.14 ± 0.01
Stability (absorbance of aldehyde peak at 349 nm) ([1]; pH 7.4, 1 hr): 0.16 ± 0.00
Stability (absorbance of aldehyde peak at 349 nm) ([1]; pH 7.4, 2 hr): 0.17 ± 0.00
Stability (absorbance of aldehyde peak at 349 nm) ([1]; pH 7.4, 3 hr): 0.09 ± 0.09
Stability (absorbance of aldehyde peak at 349 nm) ([1]; pH 7.4, 6 hr): 0.22 ± 0.00
Stability (absorbance of aldehyde peak at 349 nm) ([1]; pH 7.4, 24 hr): 0.49 ± 0.00
Stability (absorbance of aldehyde peak at 349 nm) ([1]; pH 7.4, 28 hr): 0.55 ± 0.00
Stability (absorbance of aldehyde peak at 349 nm) ([1]; pH 7.4, 48 hr): 0.98 ± 0.02
Stability (absorbance of aldehyde peak at 349 nm) ([1]; pH 7.4, 56 hr): 1.10 ± 0.03
Stability (absorbance of aldehyde peak at 349 nm) ([1]; pH 7.4, 72 hr): 1.77 ± 0.07
Stability (absorbance of aldehyde peak at 349 nm) ([1]; pH 7.4, 96 hr): 2.59 ± 0.03
Stability (absorbance of aldehyde peak at 349 nm) ([1]; pH 8.0, 0 hr): 0.14 ± 0.00
Stability (absorbance of aldehyde peak at 349 nm) ([1]; pH 8.0, 1 hr): 0.12 ± 0.00
Stability (absorbance of aldehyde peak at 349 nm) ([1]; pH 8.0, 2 hr): 0.15 ± 0.00
Stability (absorbance of aldehyde peak at 349 nm) ([1]; pH 8.0, 3 hr): 0.17 ± 0.00
Stability (absorbance of aldehyde peak at 349 nm) ([1]; pH 8.0, 6 hr): 0.24 ± 0.01
Stability (absorbance of aldehyde peak at 349 nm) ([1]; pH 8.0, 24 hr): 0.64 ± 0.16
Stability (absorbance of aldehyde peak at 349 nm) ([1]; pH 8.0, 28 hr): 1.00 ± 0.05
Stability (absorbance of aldehyde peak at 349 nm) ([1]; pH 8.0, 48 hr): 1.33 ± 0.32
Stability (absorbance of aldehyde peak at 349 nm) ([1]; pH 8.0, 72 hr): 1.89 ± 0.04
Stability (absorbance of aldehyde peak at 349 nm) ([1]; pH 8.0, 96 hr): 1.86 ± 0.01
degradation to release TD-7 (in words) ([1]; pHs 7.4 and 8.0): slow degradation
time for TD-7 to be detected in a significant amount ([1]; pHs 7.4 and 8.0): ~ 6 h
time to full dissociation into TD-7 ([1]; pHs 7.4 and 8.0): approximately four days
%Hb Modification (Hb Adduct) ([2]; 0 h): 0.00 ± 0.00%
%Hb Modification (Hb Adduct) ([2]; 1 h): 7.10 ± 4.40%
%Hb Modification (Hb Adduct) ([2]; 2 h): 14.30 ± 6.80%
%Hb Modification (Hb Adduct) ([2]; 4 h): 17.50 ± 7.10%
%Hb Modification (Hb Adduct) ([2]; 8 h): 29.70 ± 10.9%
%Hb Modification (Hb Adduct) ([2]; 12 h): 41.20 ± 15.8%
%Hb Modification (Hb Adduct) ([2]; 24 h): 54.80 ± 21.8%
%Hb O2 Affinity (P50 Shift) ([3]; 1 h): 6.48 ± 1.54%
%Hb O2 Affinity (P50 Shift) ([3]; 3 h): 13.57 ± 5.53%
%Hb O2 Affinity (P50 Shift) ([3]; 6 h): 21.64 ± 10.93%
%Hb O2 Affinity (P50 Shift) ([3]; 12 h): 41.04 ± 10.93%
%Hb O2 Affinity (P50 Shift) ([3]; 24 h): 43.87 ± 3.22%
%Sickling Inhibition ([4]; 1 h): 12.53%
%Sickling Inhibition ([4]; 3 h): 40.76%
%Sickling Inhibition ([4]; 6 h): 52.04%
